Measured values reported in patent US5846978A, “HIV protease inhibitors useful for the treatment of AIDS” (Merck & Co., Inc., priority 1997, dated 1998).

Tests used:
HIV protease [1] = target: T1, HIV protease (Human immunodeficiency virus type 1 group M subtype B, UniProt P12497); assay: Assay for Inhibition of Microbial Expressed HIV Protease (peptide substrate cleavage, HPLC); format: biochemical; conditions: for IC50 / % inhibition: pH 5.5, 30° C., 1 hour; for % inhibition: concentration not given
T1 construct: made in house; host or cells: Escherichia coli
Experimental: Assay for Inhibition of Microbial Expressed HIV Protease
Inhibition studies of the reaction of the protease expressed in Eschericia coli with a peptide substrate [Val-Ser-Gln-Asn-(betanapthyl)Ala-Pro-Ile-Val, 0.5 mg/mL at the time the reaction is initiated] were in 50 mM Na acetate, pH 5.5, at 30° C. for 1 hour. Various concentrations of inhibitor in 1.0 μl DMSO were added to 25 μl of the peptide solution in water. The reaction is initiated by the addition of 15 μl of 0.33 nM protease (0.11 ng) in a solution of 0.133M Na acetate pH 5.5 and 0.1% bovine serum albumin. The reaction was quenched with 160 μl of 5% phosphoric acid. Products of the reaction were separated by HPLC (VYDAC wide pore 5 cm C-18 reverse phase, acetonitrile gradient, 0.1% phosphoric acid). The extent of inhibition of the reaction was determined from the peak heights of the products. […] [drawing 61] 5(RS)-((4')-2"-furanyl)methylpheny-9(RS)-hydroxy-1(RS)-hydroxy-methyl-3-(2' -methylpropyl-3-azabicyclo[3.3.1]nonan-7-one (Compound 10, Table 1) [drawing 62]

HIV protease [2] = target: T1, HIV protease; assay: as above; format: biochemical; conditions: concentration printed as (8.8) μM (column head 'Enzyme concentration (μM)'); pH 5.5, 30° C., 1 hour

| Structure (SMILES) | inhibition at 100 µM (HIV protease [1]; pH 5.5) | IC50 (HIV protease [1]) | further results |
| --- | --- | --- | --- |
| CCCCC(O)C12CC(=O)CC(Cc3ccccc3)(CN(CC(C)C)C1)C2O (stereo not shown) [Compound 15] | 73% | 14 µM | – |
| O=C1CC2(Cc3ccccc3)CN(Cc3ccccc3)CC(C(O)C#Cc3ccccc3)(C1)C2O (stereo not shown) [Compound 17] | – | – | inhibition at 50 µM (HIV protease [1]; pH 5.5): 52% |
| CC(C)CN1CC2(Cc3ccccc3)CC(=O)CC(C(O)Cc3ccccc3N)(C1)C2O (stereo not shown) [Compound 20] | 93% | 1.6 µM | – |
| CC(C)CN1CC2(CO)CC(=O)CC(Cc3ccc(Br)cc3)(C1)C2O (stereo not shown) [Compound 6] | – | 244 µM | inhibition at 250 µM (HIV protease [1]; pH 5.5): 71% |
| CC(C)C[C@@H](CO)CN1CC2(CO)CC(=O)CC(Cc3ccccc3)(C1)C2O (stereo partly shown) [Compound 13] | – | 44 µM | % inhibition (HIV protease [1]): 75% |
| CC(C)CN1CC2(CO)CC(=O)CC(Cc3ccc(-c4ccco4)cc3)(C1)C2O (stereo not shown) [Compound 10] | 62% | – | – |
| CC(C)(C)CN1CC2(CO)CC(=O)CC(Cc3ccccc3)(C1)C2O (stereo not shown) [Compound 3] | – | – | inhibition at 250 µM (HIV protease [1]; pH 5.5): 69% |
| O=C1CC2(CO)CN(CC3CC3)CC(Cc3ccccc3)(C1)C2O (stereo not shown) [Compound 2] | – | – | inhibition at 250 µM (HIV protease [1]; pH 5.5): 56% |
| CC(C)CN1CC2(CO)CC(=O)CC(Cc3ccccc3)(C1)C2O (stereo not shown) [Compound 5] | – | – | inhibition at 250 µM (HIV protease [1]; pH 5.5): 63% |
| COc1ccccc1-c1ccc(CC23CC(=O)CC(CO)(CN(CC(C)C)C2)C3O)cc1 (stereo not shown) [Compound 7] | 56% | – | – |
| O=C1CC2(Cc3ccccc3)CN(CC3CCCO3)CC(C(O)Cc3ccccc3)(C1)C2O (stereo not shown) [Compound 22] | 84% | 10.4 µM | – |
| O=C1CC2(Cc3ccccc3)CN(CC3CCCC3)CC(C(O)Cc3ccccc3)(C1)C2O (stereo not shown) [Compound 21] | – | 1.8 µM | inhibition at 25 µM (HIV protease [1]; pH 5.5): 80% |
| CC(C)(C)N1CC2(CO)CC(=O)CC(Cc3ccc4ccccc4c3)(C1)C2O (stereo not shown) [Compound 12] | 43% | – | – |
| O=C1CC2(CO)CN(CC3CCCC3)CC(Cc3ccccc3)(C1)C2O (stereo not shown) [Compound 9] | – | 89 µM | – |
| CC(C)CCN1CC2(CO)CC(=O)CC(Cc3ccccc3)(C1)C2O (stereo not shown) [Compound 8] | – | – | % inhibition (HIV protease [1]): 68% |
| O=C1CC2(Cc3ccccc3)CN(Cc3ccccc3)CC(C(O)Cc3ccccc3)(C1)C2O (stereo not drawn) [Compound 18, 5(RS)-methylpheny-9(RS)-hydroxy-1(RS)-((1'-hydroxy)-2'-phenyl)-ethyl-3-benzyl-3-azabicyclo[3.3.1]nonan-7-one] | – | – | inhibition at 50 µM (HIV protease [1]; pH 5.5): 63% |
| CC(C)(C)N1CC2(CO)CC(=O)CC(Cc3ccccc3Br)(C1)C2O (stereo not shown) [Compound 11] | 76% | 30 µM | – |
| CC(C)(C)N1CC2(Cc3ccccc3)CC(=O)CC(C(O)Cc3ccccc3)(C1)C2O (stereo not shown) [Compound 19] | – | – | inhibition at 50 µM (HIV protease [1]; pH 5.5): 44% |
| CC(C)C[C@H](CO)CN1CC2(CO)CC(=O)CC(Cc3ccccc3)(C1)C2O (stereo partly shown) [Compound 14] | – | – | % inhibition (HIV protease [1]): 62% |
| O=C1CC2(CO)CN(Cc3ccccc3)CC(Cc3ccccc3)(C1)C2O (stereo not shown) [Compound 4] | – | – | inhibition at 250 µM (HIV protease [1]; pH 5.5): 82% |
| O=C1CC2(Cc3ccccc3)CN(Cc3ccccc3)CC(C(O)CN3CCCCS3(=O)=O)(C1)C2O (stereo not shown) [Compound 23] | 69% | 29 µM | – |
| CC(C)CN1CC2(Cc3ccccc3)CC(=O)CC(C(O)Cc3ccccc3)(C1)C2O (stereo not drawn) [Compound 16, 5(RS)-methylphenyl-9(RS)-hydroxy-1(RS)-((1'-hydroxy)-2'-phenyl)-ethyl-3-(2"-methyl)propyl-3-azabicyclo[3.3.1] nonan-7-one] | – | 50 µM | % inhibition (HIV protease [2]): 82% |
